Results as given in ChEMBL document CHEMBL5543059, “Discovery of anti-inflammatory natural flavonoids: Diverse scaffolds and promising leads for drug discovery” (Eur J Med Chem, 2023).
≈ marks a conversion by molar mass, not a printed value. Each block holds one compound with its values, some of them ahead of it.

What was measured:
[1] = tested on: J774.A1; assay: Antiinflammatory activity against mouse J774.A1 cells assessed as inhibition of LPS-stimulated TNF-alpha level by ELISA method; assay type: functional, cell-based
[2] = tested on: RAW264.7; assay: Antiinflammatory activity against mouse RAW264.7 cells assessed as inhibition of LPS-stimulated TNF-alpha level by ELISA method; assay type: functional, cell-based
[3] = Anti-inflammatory activity in LPS-stimulated human PBMC cells assessed as COX-2 inhibition at 100 ug/ml relative to control; assay type: functional; parameters: scale not given: the % may be the effect or the level left; conditions: dose 100 µg/ml
[4] = Anti-inflammatory activity in LPS-stimulated human PBMC cells assessed as 5-lipoxygenase inhibition at 100 ug/ml relative to control; assay type: functional; parameters: scale not given: the % may be the effect or the level left; conditions: dose 100 µg/ml
[5] = tested on: RAW264.7; assay: Inhibition of NF-kappaB activation in mouse RAW264.7 cells expressing luciferase gene at 100 microg/ml by luciferase reporter gene assay; assay type: cell-based; conditions: dose 100.0 µg/ml
[6] = Antioxidant activity assessed as DPPH radical scavenging activity at 100 microg/ml relative to control; assay type: functional; conditions: dose 100.0 µg/ml
[7] = Anti-inflammatory activity in LPS-stimulated human PBMC cells assessed as inhibition of TNFalpha at 100 ug/ml relative to control; assay type: functional; parameters: scale not given: the % may be the effect or the level left; conditions: dose 100 µg/ml
[8] = tested on: Neutrophil; assay: Inhibition of fMLF/CB-induced human Neutrophil activation assessed as reduction in superoxide anion at 10 uM relative to control; assay type: functional; parameters: scale not given: the % may be the effect or the level left
[9] = Inhibition of TNF-alpha induced NF-kappaB activation in HEK293-A cells incubated for 15 mins by Western blot analysis; assay type: cell-based; conditions: Homo sapiens, HEK293, 0.25 h
[10] = tested on: HEK293; assay: Anti-inflammatory activity against TNFalpha-induced HEK293 cells assessed as inhibition of NF-kappaB activity pre-indubated for 1 hr followed by TNFalpha treatment measured for 5 hrs by luciferase based assay; assay type: functional, cell-based; conditions: Homo sapiens
[11] = tested on: Mus musculus; assay: Antiinflammatory activity against TPA-induced mouse ear edema model assessed as reduction in NO production measured after 4 hrs; assay type: functional, organism-based
[12] = tested on: BV-2; assay: Antineuroinflammatory activity in LPS-induced mouse BV-2 cells assessed as inhibition of NO production pre-incubated for 2 hr followed by LPS-stimulation measured for 24 hrs by Griess reagent based analysis; assay type: functional, cell-based
[13] = molecular target: T1, Polyunsaturated fatty acid 5-lipoxygenase (Homo sapiens) (UniProt P09917); assay: Inhibition of 5-Lipoxygenase (unknown origin) at 30 uM relative to control
T1 sequence (whole entry): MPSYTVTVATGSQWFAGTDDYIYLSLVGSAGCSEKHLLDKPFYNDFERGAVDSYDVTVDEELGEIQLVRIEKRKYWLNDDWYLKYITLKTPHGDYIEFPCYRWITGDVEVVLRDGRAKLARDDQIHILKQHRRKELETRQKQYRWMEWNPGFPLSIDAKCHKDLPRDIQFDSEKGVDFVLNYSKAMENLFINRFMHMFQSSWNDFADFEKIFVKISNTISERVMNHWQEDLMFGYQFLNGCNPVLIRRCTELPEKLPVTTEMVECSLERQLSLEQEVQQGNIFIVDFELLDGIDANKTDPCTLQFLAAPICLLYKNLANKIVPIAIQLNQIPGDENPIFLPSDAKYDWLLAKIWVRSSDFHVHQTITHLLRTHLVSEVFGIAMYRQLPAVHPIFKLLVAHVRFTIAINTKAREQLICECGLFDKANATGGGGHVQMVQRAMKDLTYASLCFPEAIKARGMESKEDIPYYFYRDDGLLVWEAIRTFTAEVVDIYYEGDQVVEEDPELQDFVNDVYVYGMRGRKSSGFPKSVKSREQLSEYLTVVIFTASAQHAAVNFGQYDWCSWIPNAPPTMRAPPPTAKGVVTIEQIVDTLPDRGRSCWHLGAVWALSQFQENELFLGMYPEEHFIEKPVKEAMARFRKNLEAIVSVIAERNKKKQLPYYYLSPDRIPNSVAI

[14] = tested on: RAW264.7; assay: Anti-inflammatory activity in mouse RAW264.7 cells assessed as inhibition of LPS-induced NO production at 20 uM by Griess reagent based analysis relative to control; assay type: functional; parameters: scale not given: the % may be the effect or the level left
[15] = tested on: RAW264.7; assay: Anti-inflammatory activity in LPS-stimulated mouse RAW264.7 cells assessed as inhibition of NO production incubated for 24 hrs by Griess reagent based assay; assay type: functional, cell-based; conditions: RAW264.7, 24 h
[16] = Antioxidant activity assessed as ABTS radical scavenging activity incubated for 40 mins; assay type: functional
[17] = Antioxidant activity assessed as DPPH radical scavenging activity measured for 30 mins; assay type: functional
[18] = tested on: Mus musculus; assay: Anti-inflammatory activity in mouse model of xylene-induced auricle edema assessed as inhibition of ear swelling at 50 mg/kg, IG pre-treated for 1 hr followed by xylene addition and measured after 1 hr relative to control; assay type: functional; parameters: scale not given: the % may be the effect or the level left
[19] = molecular target: T2, Inhibitor of nuclear factor kappa-B kinase subunit beta (Homo sapiens) (UniProt O14920); assay: Inhibition of IKKbeta phosphorylation in high glucose-induced HUVEC cells at 1 uM relative to control; assay type: cell-based
T2 sequence (whole entry): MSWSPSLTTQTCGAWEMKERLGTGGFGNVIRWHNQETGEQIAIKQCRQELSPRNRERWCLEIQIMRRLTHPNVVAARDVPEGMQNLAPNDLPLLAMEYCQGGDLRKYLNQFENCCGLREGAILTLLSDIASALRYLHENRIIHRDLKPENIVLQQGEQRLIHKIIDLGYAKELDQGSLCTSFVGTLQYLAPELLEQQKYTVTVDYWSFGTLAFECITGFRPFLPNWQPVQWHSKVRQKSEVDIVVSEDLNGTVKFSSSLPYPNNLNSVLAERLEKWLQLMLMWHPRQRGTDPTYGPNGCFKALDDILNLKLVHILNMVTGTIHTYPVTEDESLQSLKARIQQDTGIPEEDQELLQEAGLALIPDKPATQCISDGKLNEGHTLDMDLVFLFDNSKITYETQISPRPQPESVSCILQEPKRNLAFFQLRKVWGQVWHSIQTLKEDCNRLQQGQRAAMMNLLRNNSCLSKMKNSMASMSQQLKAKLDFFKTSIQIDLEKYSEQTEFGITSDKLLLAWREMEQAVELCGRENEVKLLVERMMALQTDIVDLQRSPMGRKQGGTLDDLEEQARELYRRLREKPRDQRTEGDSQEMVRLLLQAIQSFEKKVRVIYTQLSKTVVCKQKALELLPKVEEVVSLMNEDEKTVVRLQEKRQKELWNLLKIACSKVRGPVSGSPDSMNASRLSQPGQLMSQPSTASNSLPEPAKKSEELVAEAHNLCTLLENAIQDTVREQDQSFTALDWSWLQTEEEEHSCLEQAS

[20] = tested on: Rat aortic endothelial cell; assay: Inhibition of NF-kappaB p65 phosphorylation in high glucose-induced Rat aortic endothelial cell at 1 uM relative to control; assay type: cell-based
[21] = molecular target: T2, Inhibitor of nuclear factor kappa-B kinase subunit beta (Homo sapiens); assay: Inhibition of IKKbeta phosphorylation in high glucose-induced HUVEC cells at 10 uM relative to control; assay type: cell-based
[22] = tested on: Rat aortic endothelial cell; assay: Inhibition of NF-kappaB p65 phosphorylation in high glucose-induced Rat aortic endothelial cell at 0.1 uM relative to control; assay type: cell-based
[23] = molecular target: T2, Inhibitor of nuclear factor kappa-B kinase subunit beta (Homo sapiens); assay: Inhibition of IKKbeta phosphorylation in high glucose-induced HUVEC cells at 0.1 uM relative to control; assay type: cell-based
[24] = tested on: Rat aortic endothelial cell; assay: Inhibition of NF-kappaB p65 phosphorylation in high glucose-induced Rat aortic endothelial cell at 10 uM relative to control; assay type: cell-based
[25] = tested on: Mus musculus; assay: Anti-inflammatory activity in mouse model of xylene-induced auricle edema assessed as inhibition of ear swelling at 200 mg/kg, IG pre-treated for 1 hr followed by xylene addition and measured after 1 hr relative to control; assay type: functional; parameters: scale not given: the % may be the effect or the level left

IC50 [1]: 35.5 µM
IC50 [2]: 41.2 µM
SMILES: COc1cc(O)c2c(c1CC=C(C)C)OC(c1ccccc1)CC2=O (centres undefined)

SMILES: COc1cc(-c2cc(=O)c3c(O)cc(O)cc3o2)cc(O)c1OC
Activity [3]: 83.3%
Activity [4]: 98.4%
inhibition [5]: 23.1%
Activity [6]: 40%
Activity [7]: 86.1%

SMILES: COc1cc(O)c2c(=O)c(-c3ccc(O)c(OC)c3)coc2c1
Activity [8]: 49%

IC50 [9]: 1.5 µM
SMILES: C=C1C(=O)O[C@@H]2C3O[C@]3(C)CC/C=C(\C)CC[C@@H]12 (some centres undefined)
IC50 [10]: 1.5 µM

SMILES: CC(C)=CCC/C(C)=C/Cc1c(O)cc2oc(-c3ccc(O)cc3)cc(=O)c2c1O
IC50 [11]: 4.1 µg/mL (≈ 10.1 µM)

IC50 [11]: 3.5 µg/mL (≈ 8.28 µM)
SMILES: C=C(C)[C@H](O)CC/C(C)=C/Cc1c(O)cc2oc(-c3ccc(O)cc3)cc(=O)c2c1O

IC50 [12]: 12.4 µM
SMILES: CC(C)(O)[C@@H]1Cc2cc(/C=C/C(=O)c3ccc4c(c3O)C[C@H](C(C)(C)O)O4)ccc2O1

inhibition [13]: 46.9%
SMILES: COc1cc(-c2cc(=O)c3c(O)c(OC)c(O)cc3o2)c(O)cc1O
Activity [14]: 54%

IC50 [15]: 27.7 µM
IC50 [16]: 7.9 µM
IC50 [17]: 5 µM
SMILES: COc1c(O)ccc2c(=O)cc(-c3ccc(O)c(O)c3)oc12

IC50 [12]: 3.25 µM
SMILES: CC(C)(O)CCc1c(O)ccc(C(=O)/C=C/c2ccc3c(c2)C[C@@H](C(C)(C)O)O3)c1O

SMILES: COc1ccc(-c2cc(=O)c3c(OC)c(OC)c(OC)cc3o2)cc1
Activity [18]: 42.8%

inhibition [19]: 53.6%
inhibition [21]: 88.4%
inhibition [23]: 23.2%
SMILES: COc1c(O)cc2oc(-c3ccc(O)cc3)cc(=O)c2c1O
inhibition [20]: 57.4%
inhibition [22]: 26.1%
inhibition [24]: 93.2%

IC50 [16]: 3.3 µM
IC50 [17]: 2.1 µM
SMILES: O=C1O[C@H]([C@@H](O)CO)C(O)=C1O [ASCORBIC ACID]

SMILES: CC(=O)Oc1ccccc1C(=O)O [ASPIRIN]
Activity [25]: 41.07%
